The supplement of paper PMC9265050, “Inhibition of RNA Binding in SND1 Increases the Levels of miR-1-3p and Sensitizes Cancer Cells to Navitoclax” (Cancers, 2022)

System: SW480
Experiment: drug sensitivity score (DSS, integrated dose-response area); higher = more sensitive (stronger viability reduction); extreme values may be limits of the assay
Method in brief: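 After 7 days of induction with 0.1 µg/mL doxycycline, SW480 cells stably harbouring inducible control or SND1-targeting shRNA were plated at 1000 cells per well in 384-well plates preloaded with 525 small-molecule inhibitors at five concentrations. CellTiter-Glo viability readings were taken 72 h later. Drug sensitivity scores come from integrating the area under a fitted non-linear dose–response model.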

[1] = shRNA: SND1 shRNA1 (SND1 silenced)
[2] = shRNA: SND1 shRNA2 (SND1 silenced)
[3] = shRNA: control shRNA (non-targeting)

Row | SMILES | drug sensitivity score [1] [DSS] | drug sensitivity score [2] [DSS] | drug sensitivity score [3] [DSS]
1 | CC(C)c1cc(-c2n[nH]c(=O)n2-c2ccc3c(ccn3C)c2)c(O)cc1O [Ganetespib] | 12.7 | 12.5 | 13.9
2 | CN(C)C1CCN(C(=O)c2ccc(NC(=O)Nc3ccc(-c4nc(N5CCOCC5)nc(N5CCOCC5)n4)cc3)cc2)CC1 [Gedatolisib] | 4.2 | 9.6 | 10.3
3 | COc1cc2ncnc(Nc3ccc(F)c(Cl)c3)c2cc1OCCCN1CCOCC1 [Gefitinib] | 3.6 | 6.6 | 3.7
4 | Nc1ccn([C@@H]2O[C@H](CO)[C@@H](O)C2(F)F)c(=O)n1 [Gemcitabine] | 15.8 | 6.1 | 13.4
5 | CCN(CC)Cc1ccc2cc(COC(=O)Nc3ccc(C(=O)NO)cc3)ccc2c1 [Givinostat] | 6.6 | 7.3 | 6.7
6 | CN1CC[C@@H](NC(=O)Nc2ccc(C#N)cc2)C[C@@H]1c1nc2ccccc2[nH]1 [Glasdegib] | 0 | 0 | 5.6
7 | CN1CCN(C2CCN(C(=O)Nc3cc(Oc4ccc(NC(=O)C5(C(=O)Nc6ccc(F)cc6)CC5)c(F)c4)ccn3)CC2)CC1 [Golvatinib] | 0 | 2.2 | 0
8 | CC(C)C[C@H](NC(=O)[C@@H](COC(C)(C)C)NC(=O)[C@H](Cc1ccc(O)cc1)NC(=O)[C@H](CO)NC(=O)[C@H](Cc1c[nH]c2ccccc12)NC(=O)[C@H](Cc1cnc[nH]1)NC(=O)[C@@H]1CCC(=O)N1)C(=O)N[C@@H](CCCNC(=N)N)C(=O)N1CCC[C@H]1C(=O)NNC(N)=O [Goserelin] | 0 | 0 | 0
9 | O=S(=O)(c1cccc2c(O)nccc12)N1CCCNCC1 [Hydroxyfasudil] | 1.6 |  | 3.5
10 | NC(=O)NO [Hydroxyurea] | 0 | 0 | 0.2
11 | COc1cc2c(cc1-c1c(C)noc1C)ncc1[nH]c(=O)n([C@H](C)c3ccccn3)c12 [I-BET151] | 1.4 | 0.5 | 2.4
12 | O=C(O)c1ccc(O)c2ncccc12 [IOX-1] | 1.7 | 1.1 | 0.7
13 | O=C(O)CNC(=O)c1c(O)c2ccccc2n(Cc2ccccc2)c1=O [IOX-2] | 5 | 2.3 | 6.2
14 | C=CC(=O)N1CCC[C@@H](n2nc(-c3ccc(Oc4ccccc4)cc3)c3c(N)ncnc32)C1 [Ibrutinib] | 0 | 0.6 | 0
15 | C#Cc1cccc(Nc2ncnc3cc4c(cc23)OCCOCCOCCO4)c1 [Icotinib] | 1.1 | 3.8 | 1.1
16 | CC(=O)[C@]1(O)Cc2c(O)c3c(c(O)c2[C@@H](O[C@H]2C[C@H](N)[C@H](O)[C@H](C)O2)C1)C(=O)c1ccccc1C3=O [Idarubicin] | 11.6 | 9 | 9.4
17 | COc1cc(C(=O)O)ccc1NC(=O)[C@@H]1N[C@@H](CC(C)(C)C)[C@](C#N)(c2ccc(Cl)cc2F)[C@H]1c1cccc(Cl)c1F [Idasanutlin] | 0 | 0.3 | 0.9
18 | CC[C@H](Nc1ncnc2[nH]cnc12)c1nc2cccc(F)c2c(=O)n1-c1ccccc1 [Idelalisib] | 2.3 | 4.6 | 0.7
19 | O=P1(NCCCl)OCCCN1CCCl (stereo not given) [Ifosfamide] | 0 | 0 | 0
20 | Cc1ccc(NC(=O)c2ccc(CN3CCN(C)CC3)cc2)cc1Nc1nccc(-c2cccnc2)n1 [Imatinib] | 0.7 | 1.4 | 2.5
21 | CC(C)Cn1cnc2c(N)nc3ccccc3c21 [Imiquimod] | 0.9 | 0.1 | 3.5
22 | O=C(Nc1ccncc1)C(=O)c1cn(Cc2ccc(Cl)cc2)c2ccccc12 [Indibulin] | 8.8 | 7.7 | 8.8
23 | NC(=O)c1ccc(I)c([N+](=O)[O-])c1 [Iniparib] | 0.4 | 0.1 | 0
24 | CC(C)NC[C@@H](C(=O)N1CCN(c2ncnc3c2[C@H](C)C[C@H]3O)CC1)c1ccc(Cl)cc1 [Ipatasertib] | 3.5 | 9.7 | 5.9
25 | CCc1c2c(nc3ccc(OC(=O)N4CCC(N5CCCCC5)CC4)cc13)-c1cc3c(c(=O)n1C2)COC(=O)[C@]3(O)CC [Irinotecan] | 3.2 | 1.6 | 5.5

Row | SMILES | drug sensitivity score [1] [DSS] | drug sensitivity score [2] [DSS] | drug sensitivity score [3] [DSS]
26 | CCC(C)n1ncn(-c2ccc(N3CCN(c4ccc(OCC5COC(Cn6cncn6)(c6ccc(Cl)cc6Cl)O5)cc4)CC3)cc2)c1=O (stereo not given) [Itraconazole] | 4.2 | 0.2 | 1.5
27 | C/C(=C\c1csc(C)n1)[C@@H]1C[C@@H]2O[C@]2(C)CCC[C@H](C)[C@H](O)[C@@H](C)C(=O)C(C)(C)[C@@H](O)CC(=O)N1 [Ixabepilone] | 3 | 2.7 | 2.5
28 | CCCNC(=O)Nc1ccc(Oc2ncnc3cc(OC)c(OC)cc23)cc1Cl [KRN-633] | 0 | 0.4 | 0.6
29 | O=C(c1ccc(/C=C/c2n[nH]c3ccccc23)cc1)N1CCNCC1 [KW-2449] | 0.7 | 0 | 0.2
30 | O=C(Cc1ccc(-c2ccc(OCCN3CCOCC3)cc2)cn1)NCc1ccccc1 [KX2-391] | 15 | 17.4 | 18.9
31 | CN[C@@H](C)C(=O)N[C@H](C(=O)N1CCC[C@H]1c1nc(C(=O)c2ccc(F)cc2)cs1)C1CCCCC1 [LCL161] | 0.2 | 0 | 0.5
32 | CS(=O)(=O)CCNCc1ccc(-c2ccc3ncnc(Nc4ccc(OCc5cccc(F)c5)c(Cl)c4)c3c2)o1 [Lapatinib] | 0 | 0 | 0.9
33 | Oc1ccc2c(c1)CC[C@H](c1ccccc1)[C@@H]2c1ccc(OCCN2CCCC2)cc1 [Lasofoxifene] | 0.8 | 0.7 | 2
34 | Nc1cccc2c1CN(C1CCC(=O)NC1=O)C2=O (stereo not given) [Lenalidomide] | 0 | 0.1 | 2.3
35 | COc1cc2nccc(Oc3ccc(NC(=O)NC4CC4)c(Cl)c3)c2cc1C(N)=O [Lenvatinib] | 1.8 | 1.3 | 2.1
36 | C[C@]12O[C@H](C[C@]1(O)CO)n1c3ccccc3c3c4c(c5c6ccccc6n2c5c31)CNC4=O [Lestaurtinib] | 6.8 | 7.1 | 8.3
37 | N#Cc1ccc(C(c2ccc(C#N)cc2)n2cncn2)cc1 [Letrozole] | 0 | 0 | 0.1
38 | c1ccc([C@H]2CN3CCSC3=N2)cc1 [Levamisole] | 0 | 0 | 0
39 | Cc1ccc(F)c(NC(=O)Nc2ccc(-c3cccc4[nH]nc(N)c34)cc2)c1 [Linifanib] | 0 | 0 | 0
40 | C[C@]1(O)C[C@@H](c2nc(-c3ccc4ccc(-c5ccccc5)nc4c3)c3c(N)nccn32)C1 [Linsitinib] | 0 | 0.1 | 0.2
41 | Nc1nc(OCc2cc(Br)cs2)c2[nH]cnc2n1 [Lomeguatrib] | 0 | 1.9 | 0.5
42 | O=NN(CCCl)C(=O)NC1CCCCC1 [Lomustine] | 0 | 0 | 0
43 | NC(=O)N1CCC(CC(=O)N2CCC([C@H]3c4ncc(Br)cc4CCc4cc(Cl)cc(Br)c43)CC2)CC1 [Lonafarnib] | 6.9 | 8.8 | 4.9
44 | Cc1c(F)cc(C(=O)NC2CC2)cc1-c1ccc(C(=O)NCC(C)(C)C)cn1 [Losmapimod] | 0 | 0 | 0
45 | CC[C@H](C)C(=O)O[C@H]1C[C@@H](C)C=C2C=C[C@H](C)[C@H](CC[C@@H]3C[C@@H](O)CC(=O)O3)[C@H]21 [Lovastatin] | 0 |  | 0
46 | CNC(=O)c1cccc2cc(Oc3ccnc4cc(OCC5(N)CC5)c(OC)cc34)ccc12 [Lucitanib] | 2.3 | 0.6 | 3
47 | CCNC(=O)c1noc(-c2cc(C(C)C)c(O)cc2O)c1-c1ccc(CN2CCOCC2)cc1 [Luminespib] | 15.3 | 15.4 | 15.7
48 | C=CCn1c(=O)c2cnc(Nc3ccc(N4CCN(C)CC4)cc3)nc2n1-c1cccc(C(C)(C)O)n1 [MK1775] | 13.5 | 11.5 | 11.9
49 | O=C(O)CC[C@H]1CC[C@@](c2cc(F)ccc2F)(S(=O)(=O)c2ccc(Cl)cc2)CC1 [MK-0752] | 0.7 | 0 | 0
